Measurements reported in ChEMBL document CHEMBL4308841, “Synthesis, in vitro antiproliferative activity, and kinase inhibitory effects of pyrazole-containing diarylureas and diarylamides” (Eur J Med Chem, 2018).

The molecules below were run on HL-60(TB) (assay: Growth inhibition of human HL-60(TB) cells incubated for 48 hrs by sulforhodamine B assay). Conditions: HL-60, 48 h, read-out: GI50.
Assay type: functional, cell-based
`COc1cc(Cl)cc(-c2nn(-c3cccc(NC(=O)c4ccc(N5CCOCC5)c(C(F)(F)F)c4)c3)cc2-c2ccncc2)c1` gave a GI50 of 4.19 µM.

Same assay, conditions: HL-60, 48 h, read-out: LC50
`COc1cc(Cl)cc(-c2nn(-c3cccc(NC(=O)c4ccc(N5CCOCC5)c(C(F)(F)F)c4)c3)cc2-c2ccncc2)c1` gave an LC50 greater than 100 µM.

Same assay, conditions: HL-60, 48 h, read-out: TGI
`COc1cc(Cl)cc(-c2nn(-c3cccc(NC(=O)c4ccc(N5CCOCC5)c(C(F)(F)F)c4)c3)cc2-c2ccncc2)c1` was tested, and the TGI was 33.2 µM.

Same assay, conditions: HL-60, 48 h, read-out: pGI50 (converted)
Molecule `COc1cc(Cl)cc(-c2nn(-c3cccc(NC(=O)c4ccc(N5CCOCC5)c(C(F)(F)F)c4)c3)cc2-c2ccncc2)c1` has a GI50 of 4.17 µM.

Same assay, conditions: HL-60, 48 h, read-out: pLC50 (converted)
`COc1cc(Cl)cc(-c2nn(-c3cccc(NC(=O)c4ccc(N5CCOCC5)c(C(F)(F)F)c4)c3)cc2-c2ccncc2)c1` showed an LC50 greater than 100 µM.

Same assay, conditions: HL-60, 48 h, read-out: pTGI (converted)
`COc1cc(Cl)cc(-c2nn(-c3cccc(NC(=O)c4ccc(N5CCOCC5)c(C(F)(F)F)c4)c3)cc2-c2ccncc2)c1` showed a TGI of 33.1 µM.

These molecules were tested on SR (assay: Growth inhibition of human SR cells incubated for 48 hrs by sulforhodamine B assay). Conditions: read-out: GI50.
Assay type: functional, cell-based
`COc1cc(Cl)cc(-c2nn(-c3cccc(NC(=O)c4ccc(N5CCOCC5)c(C(F)(F)F)c4)c3)cc2-c2ccncc2)c1` was tested, and the GI50 was 3.06 µM.

Same assay, conditions: read-out: LC50 (the source's name)
Molecule `COc1cc(Cl)cc(-c2nn(-c3cccc(NC(=O)c4ccc(N5CCOCC5)c(C(F)(F)F)c4)c3)cc2-c2ccncc2)c1` has a CC50 greater than 100 µM.

Same assay, conditions: read-out: TGI
`COc1cc(Cl)cc(-c2nn(-c3cccc(NC(=O)c4ccc(N5CCOCC5)c(C(F)(F)F)c4)c3)cc2-c2ccncc2)c1` gave a TGI greater than 100 µM.

Same assay, conditions: read-out: pGI50 (converted)
For `COc1cc(Cl)cc(-c2nn(-c3cccc(NC(=O)c4ccc(N5CCOCC5)c(C(F)(F)F)c4)c3)cc2-c2ccncc2)c1`, the GI50 was 3.09 µM.

Same assay, conditions: read-out: pLC50 (the source's name) (converted)
With `COc1cc(Cl)cc(-c2nn(-c3cccc(NC(=O)c4ccc(N5CCOCC5)c(C(F)(F)F)c4)c3)cc2-c2ccncc2)c1` the CC50 was greater than 100 µM.

Same assay, conditions: read-out: pTGI (converted)
With `COc1cc(Cl)cc(-c2nn(-c3cccc(NC(=O)c4ccc(N5CCOCC5)c(C(F)(F)F)c4)c3)cc2-c2ccncc2)c1` the TGI was greater than 100 µM.

What follows are molecules tested on LOX IMVI (assay: Growth inhibition of human LOXIMVI cells incubated for 48 hrs by sulforhodamine B assay). Conditions: read-out: GI50.
Assay type: functional
For `COc1cc(Cl)cc(-c2nn(-c3cccc(NC(=O)c4ccc(N5CCOCC5)c(C(F)(F)F)c4)c3)cc2-c2ccncc2)c1`, the GI50 was 1.58 µM.

Same assay, conditions: read-out: LC50 (the source's name)
`COc1cc(Cl)cc(-c2nn(-c3cccc(NC(=O)c4ccc(N5CCOCC5)c(C(F)(F)F)c4)c3)cc2-c2ccncc2)c1` was tested, and the CC50 was greater than 100 µM.

Same assay, conditions: read-out: TGI
`COc1cc(Cl)cc(-c2nn(-c3cccc(NC(=O)c4ccc(N5CCOCC5)c(C(F)(F)F)c4)c3)cc2-c2ccncc2)c1` showed a TGI greater than 100 µM.

Same assay, conditions: read-out: pGI50 (converted)
For `COc1cc(Cl)cc(-c2nn(-c3cccc(NC(=O)c4ccc(N5CCOCC5)c(C(F)(F)F)c4)c3)cc2-c2ccncc2)c1`, the GI50 was 15.8 µM.

Same assay, conditions: read-out: pLC50 (the source's name) (converted)
In the case of `COc1cc(Cl)cc(-c2nn(-c3cccc(NC(=O)c4ccc(N5CCOCC5)c(C(F)(F)F)c4)c3)cc2-c2ccncc2)c1`, the CC50 is reported as greater than 100 µM.

Same assay, conditions: read-out: pTGI (converted)
`COc1cc(Cl)cc(-c2nn(-c3cccc(NC(=O)c4ccc(N5CCOCC5)c(C(F)(F)F)c4)c3)cc2-c2ccncc2)c1` gave a TGI greater than 100 µM.

These molecules were tested on M14 (assay: Growth inhibition of human M14 cells incubated for 48 hrs by sulforhodamine B assay). Conditions: M14, 48 h, read-out: GI50.
Assay type: functional, cell-based
Molecule `COc1cc(Cl)cc(-c2nn(-c3cccc(NC(=O)c4ccc(N5CCOCC5)c(C(F)(F)F)c4)c3)cc2-c2ccncc2)c1` has a GI50 of 7.93 µM.

Same assay, conditions: M14, 48 h, read-out: LC50 (the source's name)
`COc1cc(Cl)cc(-c2nn(-c3cccc(NC(=O)c4ccc(N5CCOCC5)c(C(F)(F)F)c4)c3)cc2-c2ccncc2)c1` showed a CC50 greater than 100 µM.

Same assay, conditions: M14, 48 h, read-out: TGI
`COc1cc(Cl)cc(-c2nn(-c3cccc(NC(=O)c4ccc(N5CCOCC5)c(C(F)(F)F)c4)c3)cc2-c2ccncc2)c1` showed a TGI greater than 100 µM.

Same assay, conditions: M14, 48 h, read-out: pGI50 (converted)
`COc1cc(Cl)cc(-c2nn(-c3cccc(NC(=O)c4ccc(N5CCOCC5)c(C(F)(F)F)c4)c3)cc2-c2ccncc2)c1` showed a GI50 of 7.94 µM.

Same assay, conditions: M14, 48 h, read-out: pLC50 (the source's name) (converted)
Work on `COc1cc(Cl)cc(-c2nn(-c3cccc(NC(=O)c4ccc(N5CCOCC5)c(C(F)(F)F)c4)c3)cc2-c2ccncc2)c1` yielded a CC50 greater than 100 µM.

Same assay, conditions: M14, 48 h, read-out: pTGI (converted)
`COc1cc(Cl)cc(-c2nn(-c3cccc(NC(=O)c4ccc(N5CCOCC5)c(C(F)(F)F)c4)c3)cc2-c2ccncc2)c1` was tested, and the TGI was greater than 100 µM.

What follows are molecules tested on SK-MEL-5 (assay: Growth inhibition of human SK-MEL-5 cells incubated for 48 hrs by sulforhodamine B assay). Conditions: SK-MEL-5, 48 h, read-out: GI50.
Assay type: functional, cell-based
`COc1cc(Cl)cc(-c2nn(-c3cccc(NC(=O)c4ccc(N5CCOCC5)c(C(F)(F)F)c4)c3)cc2-c2ccncc2)c1` gave a GI50 of 1.55 µM.

Same assay, conditions: SK-MEL-5, 48 h, read-out: LC50 (the source's name)
Work on `COc1cc(Cl)cc(-c2nn(-c3cccc(NC(=O)c4ccc(N5CCOCC5)c(C(F)(F)F)c4)c3)cc2-c2ccncc2)c1` yielded a CC50 greater than 100 µM.

Same assay, conditions: SK-MEL-5, 48 h, read-out: TGI
Molecule `COc1cc(Cl)cc(-c2nn(-c3cccc(NC(=O)c4ccc(N5CCOCC5)c(C(F)(F)F)c4)c3)cc2-c2ccncc2)c1` has a TGI greater than 100 µM.

Same assay, conditions: SK-MEL-5, 48 h, read-out: pGI50 (converted)
Molecule `COc1cc(Cl)cc(-c2nn(-c3cccc(NC(=O)c4ccc(N5CCOCC5)c(C(F)(F)F)c4)c3)cc2-c2ccncc2)c1` has a GI50 of 16.6 µM.

Same assay, conditions: SK-MEL-5, 48 h, read-out: pLC50 (the source's name) (converted)
`COc1cc(Cl)cc(-c2nn(-c3cccc(NC(=O)c4ccc(N5CCOCC5)c(C(F)(F)F)c4)c3)cc2-c2ccncc2)c1` showed a CC50 greater than 100 µM.

Same assay, conditions: SK-MEL-5, 48 h, read-out: pTGI (converted)
Molecule `COc1cc(Cl)cc(-c2nn(-c3cccc(NC(=O)c4ccc(N5CCOCC5)c(C(F)(F)F)c4)c3)cc2-c2ccncc2)c1` has a TGI greater than 100 µM.

Each molecule was assayed on IGROV-1 (assay: Growth inhibition of human IGROV1 cells incubated for 48 hrs by sulforhodamine B assay). Conditions: IGROV-1, 48 h, read-out: GI50.
Assay type: functional, cell-based
Work on `COc1cc(Cl)cc(-c2nn(-c3cccc(NC(=O)c4ccc(N5CCOCC5)c(C(F)(F)F)c4)c3)cc2-c2ccncc2)c1` yielded a GI50 greater than 100 µM.

Same assay, conditions: IGROV-1, 48 h, read-out: LC50 (the source's name)
Molecule `COc1cc(Cl)cc(-c2nn(-c3cccc(NC(=O)c4ccc(N5CCOCC5)c(C(F)(F)F)c4)c3)cc2-c2ccncc2)c1` has a CC50 greater than 100 µM.

Same assay, conditions: IGROV-1, 48 h, read-out: TGI
With `COc1cc(Cl)cc(-c2nn(-c3cccc(NC(=O)c4ccc(N5CCOCC5)c(C(F)(F)F)c4)c3)cc2-c2ccncc2)c1` the TGI was greater than 100 µM.

Same assay, conditions: IGROV-1, 48 h, read-out: pGI50 (converted)
`COc1cc(Cl)cc(-c2nn(-c3cccc(NC(=O)c4ccc(N5CCOCC5)c(C(F)(F)F)c4)c3)cc2-c2ccncc2)c1` gave a GI50 greater than 100 µM.
